Laboratory results published in patent US20190352276A1, “INHIBITORS OF BRUTON'S TYROSINE KINASE” (Joint Stock Company "Biocad", priority 2016, published 2019).

How the values were obtained:
[1] = Stability in human blood plasma; details: 10 μM in pooled human blood plasma, incubated 4 hours at 37° C.
Procedure: To assess the blood plasma stability of the drug candidates, we used pooled human blood plasma taken from ten healthy donors. The initial solution (10 Mm in DMSO) was diluted with pooled blood plasma to 10 μM (test solution). The test solution had been incubated for 4 hours in a dry block heater at 37° C. We determined peak areas of the compounds corresponding to the start of the test (before incubating) and the end of the test (after incubating in a dry block heater at 37° C.) by HPLC using Agilent1200 chromatograph (Agilent, USA) with preliminary protein precipitation with acetonitrile. We used gradient elution (1 mL/min flow rate). We determined amount of substance in the sample in % after incubation.
We evaluated the stability of the compounds.

[2] = Chemical stability in artificial gastric fluid (SGF without enzymes); details: 10 μM in SGF without enzymes, pH=1.4, 37° C.
[3] = General cytotoxicity on HepG2 cells (CC50; therapeutic index CC50 HepG2/IC50 Mino); format: cell-based; details: human, HepG2 cells (hepatocellular carcinoma); Table 10; 72 hours, Alamar Blue; average of several tests
Procedure: (§1) The CC50 values were determined in the test for General cytotoxicity on HepG2 cells (hepatocellular carcinoma, ATCC® HB-8065™). 2*10^4 cells (in 50 μl) per well were seeded in 96-well plates (Corning, #3599) in DMEM medium (PanEco, #S420p), after 24 h of incubation 150 μl of candidate compounds were added to each well in the range of final concentrations from 200 μM to 4 μM and the plate was incubated in a total volume of 200 μl for 72 hours. Viability of the cells was assessed using Alamar Blue dye (Invitrogen, #DAL 1100). CC50 was determined similarly (table 10).
(§2) The relationship between toxic (CC50) and a therapeutic (IC50) effects of the dose is the therapeutic index, which can be expressed as the ratio between CC50 (HepG2) (general cytotoxicity of the candidate) and IC50 (Mino) (antiproliferative activity on the target cells): […]

[4] = tested on: HepG2 cells (hepatocellular carcinoma); assay: as above; format: cell-based; details: Table 10; therapeutic index
Procedure: as §1, §2

[5] = tested on: Z-138 (mantle cell lymphoma); assay: Antiproliferative activity, Z-138 cells (Alamar Blue); format: cell-based; details: Homo sapiens, Table 10, 72 h, average of several tests
Procedure: (§3) Antiproliferative activity of BTK inhibitors was measured in cell-based bioassay on B-cells cultures: Mino (mantle cell lymphoma, ATCC® CRL-3000™), Z-138 (mantle cell lymphoma, ATCC® CRL-3001™) and DOHH2 (follicular lymphoma, Creative Bioarray CSC-C0219) using cell viability reagent Alamar Blue (Invitrogen, #DAL 1100). Cells were cultured in 10% FB S-supplemented (HyClone, #SH3008803/Gibco, #16140-071) RPMI-1640 (PanEco, #S330p) for at least 1 passage after thawing, washed with PBS and passaged in 96-well culture plates (Corning, #3599) with growth medium with 10% FBS (HyClone, #SH3008803/Gibco, #16140-071) and antibiotic (50 μg/ml of gentamicin (Biolot, #1.3.16))≈3*10^4 cells in 50 μl of medium per well.
(§4) The compounds were dissolved in DMSO and diluted with the assay medium to final concentrations ranging from […]. 150 μl of each diluted compound were then added to each well (final concentration of DMSO was less than 1%) and incubated at 37° C. in an incubator under 5% of CO2 for 72 h. After incubation, 20 μl of Alamar Blue reagent (Invitrogen, #DAL1100) were added to each well. The plates were shaked on an orbital shaker (Biosan, Latvia) and then incubated for 14-16 hours at 37° C. in the incubator.
(§5) The number of living cells were estimated, measuring the fluorescence signal at the excitation wavelength (REx) of 540 nm and the emission wavelength (λEm) of 590 nm on a microplate reader (Tecan Infinite M200Pro, Switzerland).
(§6) For each compound, IC50 was calculated using Magellan 7.2 software (Tecan, Switzerland) approximating experimental points by four-parameter logistic model with the optimization by Levenberg-Marquardt.

[6] = tested on: Mino (mantle cell lymphoma); assay: Antiproliferative activity, Mino cells (Alamar Blue); format: cell-based; details: Homo sapiens, Table 10, 72 h, average of several tests
Procedure: as §3, §4, §5, §6

Compound	Amount of substance in the sample, % (stability in human blood plasma) [1] [%]	Amount of substance in the sample in % (chemical stability) [2] [%]	other results
C=CC(=O)N1CCC[C@@H](n2nc(-c3ccc(Oc4ccncc4)cc3)c3cncc(Cl)c32)C1 [BCD-BTK -125, (R)-1-(1-acryloylpiperidin-3-yl)-7-chloro-3-(4-(pyridin-4-yloxy)phenyl)-1H-pyrazolo[4,3-c]pyridine]	97.8	–	–
C=CC(=O)N1CCC[C@@H](n2nc(-c3ccc(Oc4ccncc4)cc3)c3c(N)ncc(C#N)c32)C1 [BCD-BTK -134, (R)-1-(1-acryloylpiperidin-3-yl)-4-amino-3-(4-(pyridin-4-yloxy)phenyl)-1H-pyrazolo[4,3-c]pyridin-7-carbonitrile]	89.7	–	–
C=CC(=O)N1CCC[C@@H](n2nc(-c3ccc(Oc4ccncc4)cc3)c3c(N)ncc(Cl)c32)C1 [BCD-BTK -139, (R)-1-(1-acryloylpiperidin-3-yl)-7-chloro-3-(4-(pyridin-4-yloxy)phenyl)-1H-pyrazolo[4,3-c]pyridin-4-amine]	87.1	–	–
C=CC(=O)N1CCC[C@@H](n2nc(-c3ccc(C(=O)Nc4ccc(F)cn4)cc3)c3c(N)ncc(Cl)c32)C1 [BCD-BTK -237, 4-{4-amino-7-chloro-1-[(3R)-1-(prop-2-enoyl)piperidin-3-yl]-1H-pyrazolo[4,3-c]pyridin-3-yl}-N-(5-fluoropyridin-2-yl)benzamide]	95.5	100	–
C=CC(=O)N1CCC[C@@H](n2nc(-c3ccc(C(=O)Nc4cc(C(F)(F)CCC)ccn4)cc3)c3cncc(F)c32)C1 [BCD-BTK -247, (R)-4-(1-(1-acryloylpiperidin-3-yl)-7-fluoro-1H-pyrazolo[4,3-c]pyridin-3-yl)-N-(4-(1,1-difluorobutyl)pyridin-2-yl)benzamide]	87.3	100	–
C=CC(=O)N1CCC[C@@H](n2nc(-c3ccc(C(=O)Nc4cccc(F)n4)cc3)c3c(N)ncc(Cl)c32)C1 [BCD-BTK -250, (R)-4-(1-(1-acryloylpiperidin-3-yl)-4-amino-7-chloro-1H-pyrazolo[4,3-c]pyridin-3-yl)-N-(6-fluoropyridin-2-yl)benzamide]	84.5	–	–
C=CC(=O)N1CCC[C@@H](n2nc(-c3ccc(C(=O)Nc4cc(C(F)(F)F)ccn4)cc3)c3c(N)ncc(Cl)c32)C1 [BCD-BTK -251, (R)-4-(1-(1-acryloylpiperidin-3-yl)-4-amino-7-chloro-1H-pyrazolo[4,3-c]pyridin-3-yl)-N-(4-(trifluoromethyl)pyridin-2-yl)benzamide]	89.2	–	–
C=CC(=O)N1CCC[C@@H](n2nc(-c3ccc(C(=O)Nc4cc(C(F)(F)CCC)ccn4)cc3)c3cncc(Cl)c32)C1 [BCD-BTK -252, (R)-4-(1-(1-acryloylpiperidin-3-yl)-7-chloro-1H-pyrazolo[4,3-c]pyridin-3-yl)-N-(4-(1,1-difluorobutyl)pyridin-2-yl)benzamide]	85.2	–	–
C=CC(=O)N1CCC[C@@H](n2nc(-c3ccc(C(=O)Nc4cc(C(F)(F)CCC)ccn4)cc3)c3c(N)ncc(Cl)c32)C1 [BCD-BTK -254, (R)-4-(1-(1-acryloylpiperidin-3-yl)-4-amino-7-chloro-1H-pyrazolo[4,3-c]pyridin-3-yl)-N-(4-(1,1-difluorobutyl)pyridin-2-yl)benzamide]	93.0	–	–
C=CC(=O)N1CCC[C@@H](n2nc(-c3cnc(C(=O)Nc4cc(C(F)(F)CCC)ccn4)nc3)c3cncc(Cl)c32)C1 [BCD-BTK -292, (R)-5-(1-(1-acryloylpiperidin-3-yl)-7-chloro-1H-pyrazolo[4,3-c]pyridin-3-yl)-N-(4-(1,1-difluorobutyl)pyridin-2-yl)pyrimidine-2-carboxamide]	93.3	–	–
C=CC(=O)N1CCC[C@@H](n2nc(-c3cnc(C(=O)Nc4cc(C(F)(F)CC)ccn4)nc3)c3cncc(Cl)c32)C1 [BCD-BTK -293, (R)-5-(1-(1-acryloylpiperidin-3-yl)-7-chloro-1H-pyrazolo[4,3-c]pyridin-3-yl)-N-(4-(1,1-difluoropropyl)pyridin-2-yl)pyrimidine-2-carboxamide]	85.7	–	–
CC#CC(=O)N1CCC[C@@H](n2nc(-c3ccc(C(=O)Nc4ccccn4)cc3)c3c(N)ncc(Cl)c32)C1 [BCD-BTK -295, (R)-4-(4-amino-1-(1-(but-2-ynoyl)piperidin-3-yl)-7-chloro-1H-pyrazolo[4,3-c]pyridin-3-yl)-N-(pyridin-2-yl)benzamide]	100.0	–	–
C=CC(=O)N1CCC[C@@H](n2nc(-c3cnc(-n4ccc(=O)c(C#N)c4)nc3)c3cncc(Cl)c32)C1 [BCD-BTK-206, (R)-1-(5-(1-(1-acryloylpiperidin-3-yl)-7-chloro-1H-pyrazolo[4,3-c]pyridin-3-yl)pyrimidin-2-yl)-4-oxo-1,4-dihydropyridine-3-carbonitrile]	87.6	–	–
C=CC(=O)N1CCC[C@@H](n2nc(-c3cnc(-n4ccc(=O)c(C(N)=O)c4)nc3)c3cncc(Cl)c32)C1 [BCD-BTK-207, (R)-1-(5-(1-(1-acryloylpiperidin-3-yl)-7-chloro-1H-pyrazolo[4,3-c]pyridin-3-yl)pyrimidin-2-yl)-4-oxo-1,4-dihydropyridine-3-carboxamide]	82.6	–	–
CC#CC(=O)N1CC(Cn2nc(-c3ccc(C(=O)Nc4ccccn4)cc3)c3cncc(Cl)c32)C1 [BCD-BTK-267, 4-(1-((1-(but-2-ynoyl)azetidin-3-yl)methyl)-7-chloro-1H-pyrazolo[4,3-c]pyridin-3-yl)-N-(pyridin-2-yl)benzamide]	100.0	100	–
CC#CC(=O)N1CCC[C@@H]1Cn1nc(-c2ccc(C(=O)Nc3ccccn3)cc2)c2cncc(Cl)c21 [BCD-BTK-269, (R)-4-(1-((1-(but-2-ynoyl)pyrrolidin-2-yl)methyl)-7-chloro-1H-pyrazolo[4,3-c]pyridin-3-yl)-N-(pyridin-2-yl)benzamide]	95.4	100	–
CC#CC(=O)N1CCC[C@@H](Cn2nc(-c3ccc(C(=O)Nc4ccccn4)cc3)c3cncc(Cl)c32)C1 [BCD-BTK-278, (R)-4-(1-((1-(but-2-ynoyl)piperidin-3-yl)methyl)-7-chloro-1H-pyrazolo[4,3-c]pyridin-3-yl)-N-(pyridin-2-yl)benzamide]	96.2	100	–
CC#CC(=O)N1CCC[C@H](Cn2nc(-c3ccc(C(=O)Nc4ccccn4)cc3)c3cncc(Cl)c32)C1 [BCD-BTK-283, (S)-4-(1-((1-(but-2-ynoyl)piperidin-3-yl)methyl)-7-chloro-1H-pyrazolo[4,3-c]pyridin-3-yl)-N-(pyridin-2-yl)benzamide]	97.4	100	–
C=CC(=O)N1CC[C@H](Cn2nc(-c3ccc(C(=O)Nc4ccccn4)cc3)c3cncc(Cl)c32)C1 [BCD-BTK-285, (S)-4-(1-((1-acryloylpyrrolidin-3-yl)methyl)-7-chloro-1H-pyrazolo[4,3-c]pyridin-3-yl)-N-(pyridin-2-yl)benzamide]	–	100	CC50 at 72 h [3]: > 100 µM; CC50 (HepG2)/IC50 (Mino) [4]: >9.91; IC50 [5]: > 34.6 µM; IC50 [6]: 10.1 µM
